Laboratory results reported in ChEMBL document CHEMBL1152129, “Quantitative structure-activity relationship and complex network approach to monoamine oxidase A and B inhibitors” (J Med Chem, 2008).
pIC50: −log10 of the molar value.

Assays:
[1] = target: T1, Amine oxidase [flavin-containing] A (Homo sapiens, UniProt P21397); test: Inhibition of human recombinant MAOA by fluorimetric method; conditions: for Activity: human
T1 sequence (P21397 whole entry): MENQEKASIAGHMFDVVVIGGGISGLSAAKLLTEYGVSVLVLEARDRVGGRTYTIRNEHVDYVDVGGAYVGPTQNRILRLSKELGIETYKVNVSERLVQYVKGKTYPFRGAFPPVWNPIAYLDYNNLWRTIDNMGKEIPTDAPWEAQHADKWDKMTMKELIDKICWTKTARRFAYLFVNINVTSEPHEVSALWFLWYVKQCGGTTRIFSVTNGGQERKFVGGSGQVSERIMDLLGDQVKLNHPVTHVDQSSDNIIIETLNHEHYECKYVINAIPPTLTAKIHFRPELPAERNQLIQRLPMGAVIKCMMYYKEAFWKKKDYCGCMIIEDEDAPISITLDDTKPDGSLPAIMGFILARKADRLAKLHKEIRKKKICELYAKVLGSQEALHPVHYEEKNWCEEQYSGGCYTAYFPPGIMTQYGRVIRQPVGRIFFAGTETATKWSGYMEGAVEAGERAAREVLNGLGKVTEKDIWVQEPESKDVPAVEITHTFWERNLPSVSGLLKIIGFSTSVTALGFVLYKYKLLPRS

[2] = target: T1, Amine oxidase [flavin-containing] A; test: Inhibition of human liver MAOA
[3] = target: T2, Amine oxidase [flavin-containing] B (Homo sapiens, UniProt P27338); test: Inhibition of human liver MAOB
T2 sequence (P27338 whole entry): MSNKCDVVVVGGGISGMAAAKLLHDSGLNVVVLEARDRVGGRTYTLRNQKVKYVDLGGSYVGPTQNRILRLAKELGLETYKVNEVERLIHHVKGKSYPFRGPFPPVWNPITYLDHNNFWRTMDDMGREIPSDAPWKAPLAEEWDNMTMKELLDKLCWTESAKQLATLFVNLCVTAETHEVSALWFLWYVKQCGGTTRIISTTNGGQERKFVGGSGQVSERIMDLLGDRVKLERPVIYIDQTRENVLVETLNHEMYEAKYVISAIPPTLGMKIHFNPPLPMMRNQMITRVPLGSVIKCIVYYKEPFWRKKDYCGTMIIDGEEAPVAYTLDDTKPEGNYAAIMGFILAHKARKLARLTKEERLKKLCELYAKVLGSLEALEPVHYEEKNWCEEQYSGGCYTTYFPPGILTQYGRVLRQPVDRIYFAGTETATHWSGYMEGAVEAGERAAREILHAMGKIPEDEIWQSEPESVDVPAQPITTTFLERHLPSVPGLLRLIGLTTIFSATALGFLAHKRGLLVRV

[4] = target: T2, Amine oxidase [flavin-containing] B; test: Inhibition of human recombinant MAOB at 100 uM by fluorimetric method

Structure (SMILES) | Activity [1] | Activity [2] | further results
CCCCCCCCCCCCCCCC(=O)N(CCCCN(C)C)CCCCN(C)C [SOLAPALMITINE] | Not Active |  | 
OC[C@@H](O)[C@@H](O)[C@H](O)[C@H](O)CO [MANNITOL] | Not Active |  | 
CCc1nc(N)nc(N)c1-c1ccc(Cl)c(Cl)c1 [ETOPRINE] | Not Active |  | 
C=CCC(C(=O)NC(N)=O)C(C)C (stereo not drawn) [APRONAL] |  | Not Active | 
CCC1(c2ccccc2)C(=O)NC(=O)NC1=O [PHENOBARBITAL] | Not Active |  | 
CO[C@@]12[C@H](COC(N)=O)C3=C(C(=O)C(C)=C(N)C3=O)N1C[C@H]1[C@@H]2N1c1ccc(O)cc1 | Not Active |  | 
COc1cccc2c1C(=O)c1c(O)c3c(c(O)c1C2=O)C[C@@](O)(C(=O)CO)C[C@@H]3O[C@H]1C[C@H](N)[C@H](O)[C@H](C)O1 [DOXORUBICIN] | Not Active |  | 
C=CC(=O)NCNC(=O)CCBr [BROMACRYLIDE] | Not Active |  | 
O=[N+]([O-])O[C@@H]1CO[C@H]2[C@@H]1OC[C@@H]2O [ISOSORBIDE MONONITRATE] |  |  | Activity [3]: Not Active; Activity [4]: Not Active
CCOc1ccc(NC(C)=O)cc1.Cl [PHENACETIN CHLORIDE] |  | Not Active | 
CC(=O)OCC(=O)[C@@]12N=C(C)O[C@@H]1C[C@H]1[C@@H]3CCC4=CC(=O)C=C[C@]4(C)[C@H]3[C@@H](O)C[C@@]12C [DEFLAZACORT] |  | Not Active | Activity [3]: Not Active
CC[C@H](C)[C@@H]1NC(=O)[C@H](Cc2ccc(O)cc2)NC(=O)[C@@H](N)CSSC[C@@H](C(=O)N2CCC[C@H]2C(=O)N[C@@H](CC(C)C)C(=O)NCC(N)=O)NC(=O)[C@H](CC(N)=O)NC(=O)[C@H](CCC(N)=O)NC1=O [OXYTOCIN] |  | Not Active | 
Cc1ncc([N+](=O)[O-])n1CCO [METRONIDAZOLE] |  |  | Activity [3]: Not Active; Activity [4]: Not Active
Cn1cc(I)ccc1=O |  | Not Active | 
COCCOC(=O)C1=C(C)NC(C)=C(C(=O)OC(C)C)C1c1cccc([N+](=O)[O-])c1 (stereo not drawn) [NIMODIPINE] | Not Active |  | 
Cc1ccc(S(=O)(=O)NC(=O)N[C@H]2[C@H]3CC[C@@](C)([C@H]2O)C3(C)C)cc1 [GLIBORNURIDE] | Not Active |  | 
OC1CCCCC1N1CCC(c2ccccc2)CC1 (stereo not drawn) |  | Not Active | Activity [3]: Not Active
CC(/C=N/NC(=N)N)=N\NC(=N)N [MITOGUAZONE] | Not Active |  | 
O=C1c2ccccc2C(=O)c2c(NCCNCCO)ccc(NCCNCCO)c21 [AMETANTRONE] |  | Not Active | Activity [3]: Not Active
O=C(Cc1ccc(N(CCCl)CCCl)cc1)NC[C@H](NC(=O)Cc1ccc(N(CCCl)CCCl)cc1)C(=O)O [LONIN 4] |  |  | Activity [3]: Not Active; Activity [4]: Not Active
CCOC(=O)OC(C)OC(=O)[C@@H]1N2C(=O)[C@@H](NC(=O)[C@H](N)c3ccccc3)[C@H]2SC1(C)C (stereo partly drawn) [BACAMPICILLIN] |  | Not Active | Activity [3]: Not Active
[H]/N=C(/N)NS(=O)(=O)c1ccc(N)cc1 [SULFAGUANIDINE] |  | Not Active | 

Structure (SMILES) | Activity [1] | Activity [2] | further results
NC(=O)NO [HYDROXYUREA] | Not Active |  | 
COc1cc2c(cc1O)N=C[C@@H]1CC[C@H](O)N1C2=O [NEOTHRAMYCIN A] |  | Not Active | 
C[C@H](N)C(=O)N[C@@H]1[C@H]2C(=C(O)C[C@@H](O)[C@@H]2O)C(=O)O[C@]1(C)C(Cl)Cl [BACTOBOLIN] |  | Not Active | Activity [3]: Not Active
CCCCC1=C2N=C(N)N[C@H]3CC[C@@H](C[C@@H]1C)[C@@H]23 [PTILOCAULINE] |  | Not Active | 
CNCCc1ccc(OC(=O)C(C)C)c(OC(=O)C(C)C)c1 [IBOPAMINE] | Not Active |  | 
Cc1nnc(SCC2=C(C(=O)O)N3C(=O)[C@@H](NC(=O)Cn4cnnn4)[C@H]3SC2)s1 [CEFAZOLIN] | Not Active |  | 
O=C(O)CCCCSc1[nH]cnc2ncnc1-2 [BUTHIOPURINE] |  | Not Active | 
CC(c1cnc2nc(N)nc(N)c2n1)N(C)c1ccc(C(=O)N[C@@H](CCC(=O)O)C(=O)O)cc1 (stereo partly drawn) [ADENOPTERIN] | Not Active |  | 
O=C(O)c1ccc(NC2OC[C@@H](O)[C@H](O)[C@H]2O)cc1 (stereo partly drawn) [BENAXIBINE] | Not Active |  | 
Cc1cc(Cl)ccc1OCC(=O)O [METAXON] | Not Active |  | 
COc1cc(NC(C)CCCN)c2ncccc2c1 (stereo not drawn) [PRIMAQUINE] | Not Active |  | 
Cc1noc(NS(=O)(=O)c2ccc(N)cc2)c1C [SULFISOXAZOLE] | Not Active |  | 
CC(=O)Nc1nnc(S(N)(=O)=O)s1 [ACETAZOLAMIDE] |  | Not Active | Activity [3]: Not Active
CN(C)[C@@H]1C(O)=C(C(N)=O)C(=O)[C@@]2(O)C(O)=C3C(=O)c4c(O)cccc4[C@@](C)(O)[C@H]3[C@H](O)[C@@H]12 [OXYTETRACYCLINE] |  | Not Active | 
Clc1sc(Cl)c(Cl)c1Cl [TETRACHLOROTHIOPHENE] |  | Not Active | Activity [3]: Not Active
O=c1[nH]nc(-c2ccncc2)o1 [NEOVADRINE] |  | Not Active | 
N[C@@H]1C[C@H]1c1ccccc1.N[C@H]1C[C@@H]1c1ccccc1 (racemic) [TRANYLCYPROMINE] |  | Not Active | Activity [3]: Not Active
C[C@@H]1C[C@@H]([C@H](O)CC2CC(=O)NC(=O)C2)C(=O)[C@@H](C)C1 [CYCLOHEXIMIDE] | Not Active |  | 
N#CC(O[C@@H]1O[C@H](CO[C@@H]2O[C@H](CO)[C@@H](O)[C@H](O)[C@H]2O)[C@@H](O)[C@H](O)[C@H]1O)c1ccccc1 (stereo partly drawn) [VITAMIN B17] | Not Active |  | 
C[C@H]1CC2=CC(=O)CC[C@]2(C)[C@H]2CC[C@@]3(C)[C@@H](CC[C@]3(C)O)[C@H]12 [CALUSTERONE] | Not Active |  | 
O=C(NP(=O)(N1CC1)N1CC1)c1ccc(F)cc1 [FLUORBENZOTEF] | Not Active |  | 
CC(C)Cc1ccc(C(C)C(=O)O)cc1 (stereo not drawn) [IBUPROFEN] | Not Active |  | 

Structure (SMILES) | Activity [1] | Activity [2] | further results
C=CC1=C(C(=O)O)N2C(=O)[C@@H](NC(=O)/C(=N\OCC(=O)O)c3csc(N)n3)[C@H]2SC1 [CEFIXIME] | Not Active |  | 
COC1=C(C)C(=O)C2=C(C1=O)[C@@H](CO)N1[C@H]3[C@H]4[C@@H](C[C@H]([C@H]1C#N)N4C)[C@@H]1OCCN1[C@@H]23 [CYANOCYCLINE A] | Not Active |  | 
CN1C(CSCC(F)(F)F)Nc2cc(Cl)c(S(N)(=O)=O)cc2S1(=O)=O (stereo not drawn) [POLYTHIAZIDE] |  | Not Active | 
CC(=O)OC1C=CC(=O)OC1C1OC1C (stereo not drawn) [ASPERLIN] | Not Active |  | 
COc1c(O)ccc2c(C)cc(=O)oc12 |  |  | pIC50 [1]: 4.10; Activity [4]: Not Active
CCC1(C)CC(=O)NC1=O (stereo not drawn) [ETHOSUXIMIDE] |  |  | Activity [4]: Not Active
OC[C@H]1O[C@@H](n2cnc3c(S)ncnc32)[C@H](O)[C@@H]1O [THIOINOSINE] | Not Active |  | 
CCOC(=O)[C@H](Cc1ccc(O)cc1)NC(=O)[C@H](Cc1ccc(N(CCCl)CCCl)cc1)NC(C)=O [ASDOPHAN] | Not Active |  | 
Nc1ccc(S(=O)(=O)Nc2ncccn2)cc1 [SULFADIAZINE] |  | Not Active | 
CCOC(N)=O |  | Not Active | Activity [3]: Not Active
CC1=C(/C=C/C(C)=C/C=C/C(C)=C/CO)C(C)(C)CCC1 [RETINOL] | Not Active |  | 
CCC1(c2ccccc2)C(=O)NCNC1=O [PRIMIDONE] | Not Active |  | 
CC(CCc1ccccc1)NCC(O)c1ccc(O)c(C(N)=O)c1 (stereo not drawn) [LABETALOL] | Not Active |  | 
CCCCNc1ccc(C(=O)OCCN(C)C)cc1 [TETRACAINE] |  | Not Active | Activity [3]: Not Active
O=NN(CCCl)C(=O)NCCO [ELMUSTINE] | Not Active |  | 
Nc1nc(=O)c2nc(CNc3ccc(C(=O)NC(CCC(=O)NC(CCC(=O)NC(CCC(=O)O)C(=O)O)C(=O)O)C(=O)O)cc3)cnc2[nH]1 (stereo not drawn) [PTEROPTERIN] |  | Not Active | 
CCOC(=O)/C=C1\SC(N2CCCCC2)C(=O)N1C (stereo not drawn) [ETOZOLIN] | Not Active |  | 
CC(=O)Nc1ccc(/C=N/NC(N)=S)cc1 [AMITHIOZONE] | Not Active |  | 
O[C@@H]([C@H](O)[C@H](O)CBr)[C@H](O)CBr [MITOBRONITOL] | Not Active |  | 
COc1ccc(Cl)cc1C(=O)NCCc1ccc(S(=O)(=O)NC(=O)NC2CCCCC2)cc1 [GLYBURIDE] | Not Active |  | 
